# Experimental data: US20240293588A1, “THERAPEUTIC CONJUGATES” (Starpharma Pty Ltd, priority 2020, published 2024)
# Key:
# MDA-MB-231/HER2 tumours = assay: Tumour distribution of tritium-labelled MMAE-conjugated dendrimers; format: in vivo, NOD/SCID mice; settings: 3H label, 0.5 μCi via tail vein, 48 h, mean±SEM
# Method: MDA-MB-231/HER2 cells (5×10^6 cells in 50 μL of PBS:Matrigel) were transplanted into the 4th mammary fat pad of female NOD/SCID mice (5-7 weeks old) subcutaneously. Solid tumours were allowed to grow to 100 mm^3 (approximately 3-4 weeks). The mice were divided into two different groups, consisting of six mice in each group. Compound 72 (control group) or Compound 127 (targeted group) (0.5 μCi in 100 μL, PBS pH 7) was then injected via tail vein under isoflurane sedation. The mice were anaesthetised with isoflurane 48 h later, and blood collected via cardiac puncture immediately prior to cervical dislocation. Selected organs (including tumour, liver, spleen, kidney, pancreas, lung, heart and brain) were subsequently removed, weighed and processed for tritium (^3H) biodistribution.
# MDA-MB-231 cells [1] = assay: GI50 panel (MTT assay), MDA-MB-231; format: cell-based
# SKOV-3 cells [2] = assay: GI50 panel (MTT assay), SKOV-3; format: cell-based
# SK-Br-3 cells = assay: GI50 panel (MTT assay), SK-BR-3; format: cell-based
# NCI-N87 cells = assay: GI50 panel (MTT assay), NCI-N87; format: cell-based
# OE-19 cells = assay: GI50 panel (MTT assay), OE19; format: cell-based
# MDA-MB-231 cells [3] = assay: Cytotoxicity alamarBlue assay, MDA-MB-231 (HER2 lo); format: cell-based; settings: 48 h; for Cell viability %: mean ± sd, n=4
# Method: (§1) The cytotoxicity of Compound 71 (control) and Compound 123 (targeted) toward MDA-MB-231, and MDA-MB-231/HER2 transfected cells were evaluated via alamarBlue assays. Cells were seeded at a density of 5×10^3, in 96-well plates and incubated overnight. Cells were then treated with indicated concentrations of test compositions for 48 h. AlamarBlue (Thermo Fisher, DAL1025) was added during the final 4 h of incubation. Reduction of alamarBlue in living cells yields a red fluorescent metabolite that can be read on a plate reader (560 nm excitation/610 nm emission). Cell viability and subsequent IC50 was determined from the blank corrected dose-response curves, with 4-parameter nonlinear nonlinear curve fit, variable slope (four parameters) in GraphPad Prism 7.02. […] Compound 123 (targeted) is approximately 140-fold increase in MDA-MB-231/HER2 cell growth inhibition compared to Compound 71 (control).
# [4] = system: MDA-MB-231/HER2 transfected cells; assay: Cytotoxicity alamarBlue assay, MDA-MB-231/HER2 (HER2 hi); format: cell-based; settings: 48 h; for Cell viability %: mean ± sd, n=4
# Method: MDA-MB-231 breast cancer cells were transfected with plasmid HER2 WT Addgene, 16257) using Lipofectamine 3000 according to manufacturer's instructions. After passaging in the presence of 500 μg/ml Geneticin (Thermo Fisher, catalogue 10131035), cells with stable overexpression of HER2 WT were isolated by fluorescence activated single cell sorting using a MoFlo Astrios (Beckman Coulter). A clonal cell population isolated from this process was further passaged in Geneticin before a second round of cell sorting and screening for transgene expression. A selected clone was then further expanded and stocks of this cell line, referred to as MDA-MB-231/HER2, were cryopreserved to generate a master stock of stably transduced cells.
# as §1
# [5] = system: MDA-MB-231 cells (HER2 lo); assay: In vitro association study (flow cytometry), MDA-MB-231; format: cell-based, human; settings: MDA-MB-231, over 24 h, result in words
# [6] = system: MDA-MB-231/HER2 (HER2 knock in) cells; assay: In vitro association study (flow cytometry), MDA-MB-231/HER2; format: cell-based, human
# SKOV-3 cells [7] = assay: In vitro association study (flow cytometry), SKOV-3; format: cell-based, human
# Method: The HER2-expressing human metastatic carcinoma cell line MDA-MB-453 (ATCC HTB-131) and the HER2-lo epithelial adenocarcinoma cell line MDA-MB-231 (ATCC HTB-26) were maintained in Dulbecco's Modified Eagle's Medium (DMEM) containing 10% FBS and penicillin-streptomycin (100 U/mL) at 37° C. under a 5% CO2 humidified atmosphere and subcultured prior to confluence using trypsin. Human adenocarcinoma ovary cell line SKOV-3 (ATCC® HTB-77) cells were maintained in RPMI media with the addition of 10% (v/v) FBS and penicillin-streptomycin (100 U/mL) at 37° C. in a 5% CO2 humidified atmosphere and subcultured prior to confluence.
# MDA-MB-231, MDA-MB-231/HER2 (HER2 knock in) (as described in Ex 6 above), or SKOV-3 cells were seeded in a 24-well plate (1×10^5 cells per well) in 500 μL of appropriate growth media with the addition of 10% (v/v) fetal bovine serum (FBS) and incubated with Compound 36 or Compound 41 at 3.33 nM, with incubation time varied from 1 to 24 h at 37° C. in a 5% CO2 humidified atmosphere. […] Cellular binding and association of sample were then determined through flow cytometry by the acquisition of the signal from Cy5.
# To measure internalisation kinetics, nanobody-dendrimer was incubated with cells for 24, 4, 1, 0.5, and 0.1 hours at 37° C. before unbound nanobody-dendrimer was removed by washing and analysed by flow cytometry.
# MDA-MB-231 cells [8] = assay: Confocal cellular uptake, MDA-MB-231; format: cell-based; settings: MDA-MB-231, 3.33 nM, 24 h
# Method: MDA-MB-231, MDA-MB-231/HER2 and SKOV-3 cells were plated at 1.0×10^4 cells per well into μ-slide 8-well chambered coverslip (ibidi) and allowed to adhere overnight at 37° C., 5% CO2. Compound 71 and Compound 123 (3.33 nM) were then added and allowed to incubate for 1, 3, 6, and 24 h. The cells were washed and then fixed with 1% paraformaldehyde for 20 min at room temperature. The cell membrane was stained with Alexa Fluor 488-wheat germ agglutinin (AF488-WGA, 5 μg mL^−1) in DPBS at room temperature for 10 min. The cell nuclei were counterstained with 4′,6-diamidino-2-phenylindole (DAPI, 2 μg mL^−1) in DPBS at room temperature for 10 min. Fluorescence images and optical sections were collected using a confocal microscope (Leica SP8). Images were processed with Fiji (Image J 1.52n).
# ErbB2-ECD = ErbB2-ECD (Homo sapiens, UniProt P04626); assay: SPR binding studies with immobilized ErbB2-ECD; settings: result in words
# Method: Using a ProteOn XPR36 instrument, ErbB2-ECD was immobilized at 25° C. onto a GLC sensor chip surface (Bio-Rad), with HBS-P+ running buffer (10 mM HEPES, pH 7.4, 150 mM NaCl, 0.05% Tween 20). Standard amine coupling methodology described in Bio-Rad's amine coupling kit was utilized for this immobilization. Lane 1 was activated with a 50:50 mixture of EDC (0.5 mM) and sulfo-NHS (0.125 mM). ErbB2 protein was diluted to […] in 10 mM sodium acetate, pH 5.0 and injected over the activated surface channel. Any remaining activated sites were blocked with 1 M ethanolamine-HCl, pH 8.5.
# All SPR binding experiments were performed at 25° C. using HBS-EP+/BSA (10 mM HEPES, pH 7.4, 150 mM NaCl, 3 mM EDTA, 0.05% Tween20, 0.1 mg/ml BSA) as the instrument running buffer (RB). Following immobilization procedures, various concentrations of anti-ErbB2 affibodies and their MMAE-dendrimer conjugates were injected at 60 μl/min over immobilized ErbB2 proteins and their association monitored for 90 sec. Running buffer was subsequently injected over bound Ab-ErbB2 complexes and dissociation monitored for up to 60 min. […] All binding measurements were performed in triplicate.
# Collected experimental data were processed using Scrubber-Pro software (www.biologic.com.au). […]
# [9] = biological target: T1, HER2 (human epidermal growth factor receptor 2) on cells (human, UniProt P04626 23-1255); assay: flow cytometry (Cy5), SKOV-3 cells, 24 h
# T1 construct: whole, on cells; also called ERBB2; HER2 receptor
# [10] = biological target: T1, HER2 (human epidermal growth factor …); assay: flow cytometry (Cy5), MDA-MB-231/HER2 cells, 24 h
molecule,measurement,setting,value
"(MeTzPh)PEG4CO-NHPEG24CO—[N(PN)2][Lys]2[^3H-Lys]4[Lys]8[(α-NHGlu-VC-PAB-MMAE)8(ε-NH-COPEG1100)8], G3 [Compound 72]",accumulation in HER2 positive tumours,MDA-MB-231/HER2 tumours,1.88 % dose/g
same,blood concentration,MDA-MB-231/HER2 tumours,3.69 % dose/g
"CS(=O)(=O)CCNCc1ccc(-c2ccc3ncnc(Nc4ccc(OCc5cccc(F)c5)c(Cl)c4)c3c2)o1 [Lapatinib, reference compound]",GI50,"MDA-MB-231 cells [1]; Homo sapiens, MDA-MB-231, 72 h",112 µM
same,GI50,"SKOV-3 cells [2]; Homo sapiens, SK-OV-3, 72 h",7.2 µM
same,GI50,"SK-Br-3 cells; Homo sapiens, SK-BR-3, 72 h",138 nM
same,GI50,"NCI-N87 cells; Homo sapiens, NCI-N87, 72 h",8.1 nM
same,GI50,"OE-19 cells; Homo sapiens, OE19, 72 h",0.2 µM
"(MeTzPh)PEG4CO-NHPEG24CO—[N(PN)2][Lys]2[Lys]4[Lys]8[((α-NHCy5)1(α-NHGlu-VC-PAB-MMAE)7)(ε-NH-COPEG1100)8], G3 [Compound 71]",GI50,"MDA-MB-231 cells [1]; MDA-MB-231, MTT, 72 h, Kadcyla based on estimated weight ADC, footnote: based on MMAE drug equivalents",12.5 µM
same,GI50,"SKOV-3 cells [2]; SKOV-3, MTT, 72 h, Kadcyla based on estimated weight ADC, footnote: based on MMAE drug equivalents",1.6 µM
same,GI50,"SK-Br-3 cells; SK-BR-3, MTT, 72 h, Kadcyla based on estimated weight ADC, footnote: based on MMAE drug equivalents",948 nM
same,GI50,"NCI-N87 cells; NCI-N87, MTT, 72 h, Kadcyla based on estimated weight ADC, footnote: based on MMAE drug equivalents",2040 nM
same,GI50,"OE-19 cells; OE19, MTT, 72 h, Kadcyla based on estimated weight ADC, footnote: based on MMAE drug equivalents",6.12 µM
same,Cell viability %,"MDA-MB-231 cells [3]; MDA-MB-231, MMAE concentration 1 × 10^−5 M",94.2 ± 12.1%
same,Cell viability %,"MDA-MB-231 cells [3]; MDA-MB-231, MMAE concentration 1 × 10^−6 M",94.4 ± 8.2%
same,Cell viability %,"MDA-MB-231 cells [3]; MDA-MB-231, MMAE concentration 1 × 10^−7 M",94.2 ± 12.5%
same,Cell viability %,"MDA-MB-231 cells [3]; MDA-MB-231, MMAE concentration 1 × 10^−8 M",96.6 ± 11.7%
same,Cell viability %,"MDA-MB-231 cells [3]; MDA-MB-231, MMAE concentration 5 × 10^−5 M",81.1 ± 5.4%
same,IC50,"MDA-MB-231 cells [3]; MDA-MB-231, alamarBlue, MMAE concentration",Ambiguous
same,Cell viability %,"[4]; MDA-MB-231/HER2, MMAE concentration 1 × 10^−5 M",61.6 ± 3.1%
same,Cell viability %,"[4]; MDA-MB-231/HER2, MMAE concentration 1 × 10^−6 M",78.2 ± 9.1%
same,Cell viability %,"[4]; MDA-MB-231/HER2, MMAE concentration 1 × 10^−7 M",96.1 ± 3.6%
same,Cell viability %,"[4]; MDA-MB-231/HER2, MMAE concentration 1 × 10^−8 M",95.4 ± 7.6%
same,Cell viability %,"[4]; MDA-MB-231/HER2, MMAE concentration 5 × 10^−5 M",49.9 ± 15.0%
same,IC50,"[4]; MDA-MB-231/HER2, alamarBlue, MMAE concentration",2840 nM
same,binding towards cell line (flow cytometry),[5],minimal binding
same,mean fluorescence intensity (Cy5),"[6]; MDA-MB-231/HER2, 3.33 nM, 24 h, 37° C., mean±SD, n=3",16.05±1.89
same,binding towards cell line (flow cytometry),"[6]; MDA-MB-231/HER2, over 24 h, result in words",minimal binding
same,mean fluorescence intensity (Cy5),"SKOV-3 cells [7]; SKOV-3, 3.33 nM, 24 h, 37° C., mean±SD, n=3",16.4±6.86
same,binding towards cell line (flow cytometry),"SKOV-3 cells [7]; SKOV-3, over 24 h, result in words",minimal binding
same,association with cells (confocal microscopy),MDA-MB-231 cells [8],little
"Azido-PEG24CO—[N(PN)2][Lys]2[Lys]4[Lys]8[(α-NHGlu-vc-PAB-MMAE)8(ε-NH-COPEG1100)8], G3 [Compound 65]",binding to ErbB2 proteins (SPR),ErbB2-ECD,No binding
"Azido-PEG24CO—[N(PN)2][Lys]2[Lys]4[Lys]8[(α-NHGlu-vc-PAB-MMAE)8(ε-NH-COPEG2000)8], G3 [Compound 66]",binding to ErbB2 proteins (SPR),ErbB2-ECD,No binding
"Nanobody*-N3/DBCO-NHCO-PEG12TCO/(MeTzPh)PEG4CO-NHPEG24CO-[N(PN)2][Lys]2[Lys]4[Lys]8[((α-NHCy5)1(α-NHGlu-VC-PAB-MMAE)7)(ε-NH-COPEG1100)8], Compound 123 (VHH, C-terminal # (unnatural amino acid, p-azido-phenylalanine) clicked to DBCO-NHCO-PEG12-TCO, joined to the tetrazine at the core of the G3 lysine dendrimer (1 Cy5, 7 Glu-VC-PAB-MMAE, 8 PEG1100), T0004 r280 names the protein Nanobody*; No synthesis paragraph for this compound; also called 2D3 nanobody targeted dendrimer) VHH: EVQLVESGGSLVQPGGSLRLSCAASGFTFDDYAMSWVRQVPGKGLEWVSSINWSGTHTDYADSVKGRFTISRNNANNTLYLQMNSLKSEDTAVYYCAKNWRDAGTTWFEKSGSAGQGTQVTVSS",fold fluorescence over Compound 71 (untargeted control),[9],~16 fold
same,fold fluorescence over Compound 71 (untargeted control),[10],~9 fold
